Measurements reported in patent US6040149A, “Assay for identifying agents which act on the ceramide-activated protein kinase, kinase suppressor of ras, and methods of using said agents” (priority 1997, dated 2000).

Test system: Raf-1
Test: Raf-1 phosphorylation in vitro by renatured CAP kinase
Format: biochemical, human (recombinant Raf-1)
Conditions: CAP kinase from TNF-stimulated HL-60 cells
Description: The data represent one of five similar experiments.
The data represent one of four similar experiments.
The data represent one of three similar experiments.
CAP kinase was the only kinase to renature from HL-60 cell membranes and that this activity was exclusively membrane-bound, since no 100-110 kDa activity could be renatured from cytosolic fractions. […] Conditions for CAP kinase activity were optimized previously using myelin basic protein (MBP) or a peptide derived from the amino acid sequence surrounding Thr669 of the epidermal growth factor receptor as substrates.
FIG. 17A--HL-60 cells were incubated in serum-free RPMI [RPMI containing 16 mg/ml serine, 8.4 mg/ml asparagine, 16.7 mg/ml glutamine, 25 mM HEPES, pH 7.4 and 0.5 mg/ml each of insulin and transferrin] at 1×106 ml^-1 for 2 hr, followed by stimulation with TNF (1 nM) for 20 min. […] Centrifugation for 5 min at 700×g yielded a post-nuclear supernate from which microsomal membranes were prepared by centrifugation at 250,000×g for 30 min. Microsomal membranes were resuspended into homogenizing buffer and proteins (30×10^6 cell equivalents/lane)were resolved on a 7.5% SDS-polyacrylamide gel. CAP kinase was renatured as described by Liu et al.. […]

## TNF-α
  enhancement of Raf-1 phosphorylation: 4-5 fold
